Our source for the ring closure, monomer to dimer values is publication PMC7588042.

The nature of data set [1]: double amidation of dimethyl bis(oxyacetate) diester with alpha,omega-diamine (aminolysis of methyl ester, no additive), 10 kbar, 24 h. The following applies: the molecule shown is the open-chain precursor, MeOH, 30.0 mM, 25.0 °C, 2 steps, scale: mol% diamide.
The nature of data set [2]: double amidation of dimethyl bis(oxyacetate) diester with alpha,omega-diamine (aminolysis of methyl ester, no additive), 1 bar, 168 h. The following applies: the molecule shown is the open-chain precursor, MeOH, 30.0 mM, 25.0 °C, 2 steps, scale: mol% diamide.

For the compound `COC(=O)COc1ccccc1OCC(=O)NCCOCCN` [3{1,1}], the ring closure, monomer to dimer is 95 in data set [1] (15-membered ring) and 99.5 in data set [2] (15-membered ring).

Take `COC(=O)COc1ccccc1OCC(=O)NCCCOCCCCOCCCN` [3{1,2}]: the values for the ring closure, monomer to dimer in data set [1] (22-membered ring) and in data set [2] (22-membered ring) were 78 and 85, respectively.

In the case of `COC(=O)COc1ccccc1OCC(=O)NCCCOCCOCCOCCCN` [3{1,3}], the ring closure, monomer to dimer in data set [1] (23-membered ring) was 76; in data set [2] (23-membered ring), 88.

`COC(=O)COc1cccc(OCC(=O)NCCOCCN)c1` [3{2,1}]: the ring closure, monomer to dimer worked out at 68.5 in data set [1] (16-membered ring) and 77 in data set [2] (16-membered ring).

Consider `COC(=O)COc1cccc(OCC(=O)NCCCOCCCCOCCCN)c1` [3{2,2}], for which the results for the ring closure, monomer to dimer in data set [1] (23-membered ring) and in data set [2] (23-membered ring) were 76.5 and 85, respectively.

In the case of `COC(=O)COc1cccc(OCC(=O)NCCCOCCOCCOCCCN)c1` [3{2,3}], the ring closure, monomer to dimer is 78 in data set [1] (24-membered ring) and 95 in data set [2] (24-membered ring).

On to `COC(=O)COc1ccc(OCC(=O)NCCOCCN)cc1` [3{3,1}], for which the ring closure, monomer to dimer in data set [1] (17-membered ring) was 16.5; in data set [2] (17-membered ring), 33.

Take `COC(=O)COc1ccc(OCC(=O)NCCCOCCCCOCCCN)cc1` [3{3,2}]: the ring closure, monomer to dimer in data set [1] (24-membered ring) stood at 81; in data set [2] (24-membered ring) it was 85.

In the case of `COC(=O)COc1ccc(OCC(=O)NCCCOCCOCCOCCCN)cc1` [3{3,3}], the figures for the ring closure, monomer to dimer in data set [1] (25-membered ring) and in data set [2] (25-membered ring) were 79 and 89, respectively.
